Data from patent publication US10967047B2, “Mitochondrial antiviral-signaling (MAVS) polypeptides and detection and use thereof” (University of Vermont and State Agricultural College, priority 2016, dated 2021).

System: MAVS
Assay: MAVS oligomerization in human PBMC and plasma (semi-denaturing agarose gel electrophoresis)
Format: cell-based
Method: MAVS-deficient and matching WT MEFs, gift of Z. J. Chen (Z. J. Chen et al. (2005) Cell 122, 669-682), were maintained in Dulbecco's modified Eagle's medium (DMEM) (Hyclone), supplemented with 10% heat-inactivated fetal calf serum (FCS) (Hyclone), 100 mM L-glutamine (Cellgro Mediatech), and 10,000 units/mL penicillin/10 mg/mL streptomycin sulfate (Life Technologies). C57BL6 or B6; 129-Mavstm1Zjc/J mice (The Jackson Laboratory, Bar Harbor, Me.) were maintained at the University of Vermont under a protocol approved by the Institutional Animal Care and Use Committee. Murine BMDCs were prepared as described by Inaba et al. (K. Inaba et al., (1992) Journal of Experimental Medicine 176, 1693-1702). In brief, cells derived from femur bone marrow were cultured at a density of 5×10^5/mL in 10-cm plates in RPMI 1640 (HyClone), supplemented with 5% heat-inactivated FCS, 100 mmol L-glutamine, 100 mmol sodium pyruvate, 10,000 units/mL penicillin/10 mg/mL streptomycin sulfate, 5×10^−5 mol 2-mercaptoethanol (Sigma, St. Louis, Mo.), and 10 μg/mL GM-CSF (Life Technologies). Human subjects were enrolled under a protocol approved by the University of Vermont Institutional Review Board. Samples from 17 SLE patients fulfilling the American College of Rheumatology diagnostic criteria were studied (E. M. Tan et al., (1982) Arthritis and Rheumatism 25, 1271-1277). 16 out of 17 patients were female, and the age of study participants was 47±3. The disease activity was assessed by the SLE disease activity index (SLEDAI) scores, ranging from 0 to 10 (C. Bombardier et al., (1992) Arthritis and Rheumatism 35, 630-640). Upon informed consent, primary human PBMCs were obtained from heparinized whole-blood samples from SLE patients. Control PBMCs were generated from age-, sex-, and ethnicity-matched healthy subjects. PBMCs were isolated using standard Ficoll gradient centrifugation as previously described (R. Mallone et al., (2011) Clin. and Exp. Immunol. 163, 33-49). Cells were either used immediately to prepare lysates for immunoblotting or cultured at a density of 5×10^5/mL in a 12-well culture plate with RPMI 1640 (HyClone), supplemented with 5% heat-inactivated FCS, 100 mmol L-glutamine, 100 mmol sodium pyruvate, and 10,000 units/mL penicillin/10 mg/mL streptomycin sulfate. Enriched monocytes from PBMCs were used to prepare hDCs using negative magnetic bead selection (Miltenyi), and were subsequently cultivated for 6 d in 10 μg/mL GM-CSF and 500 U/mL IL-4. All cells were maintained in a humidified chamber at 37° C. and 5% CO2.
SDD-AGE was performed according to a published protocol with minor modifications (Alberti et al., (2009) Cell 137, 146-158). In brief, mitochondria were resuspended in sample buffer (0.5×TBE, 10% glycerol, 2% SDS, and 0.0025% bromophenol blue) and loaded onto a vertical 1.5% agarose gel. After electrophoresis in the running buffer (1×TBE and 0.1% SDS) for 35 min with a constant voltage of 75 V at 4° C., proteins were transferred to PVDF membranes using a Trans-Blot Turbo Transfer System (BioRad) for immunoblotting.
PVDF membranes were blocked in 5% solution of nonfat powdered milk in Tris-buffered saline. Antibodies used were specific for MAVS and Actin (Santa Cruz); RIPK1 and TRAF2 (BD Biosciences); TANK, TRADD, RIG-I, and GAPDH (Cell Signaling); MDAS and COX4 (Abcam), Alexa 488 (Life Technologies), and IRF3 (Thermo Fisher), respectively. […] Chemiluminescence was detected and recorded using a Biorad Chemidoc instrument. […]

COC1=C(OC)C(=O)C(CCCCCCCCCC[P+](c2ccccc2)(c2ccccc2)c2ccccc2)=C(C)C1=O.CS(=O)(=O)[O-] [MitoQ, [10-(4,5-Dimethoxy-2-methyl-3,6-dioxo-1,4-cyclohexadien-1-yl)decyl](triphenyl)phosphonium methanesulfonate]
GOx-induced MAVS oligomerization in PBMCs after pretreatment (healthy-donor PBMCs pretreated with MitoQ or grown in presence of β-Me, then GOx (FIG. 4A)): MAVS oligomerization did not occur

glucose oxidase [GOx]
induction of MAVS oligomerization in PBMCs (healthy-donor PBMCs treated with GOx (FIG. 4A)): induced pronounced MAVS oligomerization
